Data on one molecule can be found in US20080039461A1, “Treatment of pain by inhibition of p38 map kinase” (priority 2002, published 2008).

Type in all cases: in vivo, rat
The subject of experiment [1] is thermal hyperalgesia induced by IT sP. In words: thermal hyperalgesia evoked by intrathecal substance P. Conditions: intrathecal pretreatment (-10 min); sP 30 nmol/10 μL. How it is done: (The inhibitory activity of SD for p38 alpha and p38 beta was evaluated with an assay using recombinant (E. coli) human enzymes and myelin basic protein as a substrate by the methods of Clerk and Kumar respectively. See A. Clerk, P. […]. Sugden, FEBS Lett 426, 93-6. (1998) and S. Kumar, et al., Biochem Biophys Res Commun 235, 533-8. (1997).
(§1) Male Sprague-Dawley rats (300-350 g) were implanted under isoflurane anesthesia with lumbar polyethylene (PE-10) catheters according to a modified method originally described in Physiol. Behav. 17, 1031 (1976). […] IT saline and 5% DMSO alone had no effect on behavior or protein expression/phosphorylation.

Experiment [2] relates to NMDA-induced hyperalgesia. In words: hyperalgesia induced by intrathecal NMDA. Conditions: IT NMDA 0.3 μg; MK801 10 μg, IT SD 3-60 μg, IT SB 1-30 μg, SA 10 μg.
Description: as §1

For experiment [3], the system named is carrageenan-induced thermal hyperalgesia. In words: carrageenan-induced thermal hyperalgesia (Hargreaves-type device). How it is done:
Hyperalgesia was induced in the rat's right hindpaw by intraplantar injection of carrageenan (2 mg in 0.1 ml of a […] solution (weight/volume) in physiological saline). To assess the thermally evoked paw withdrawal time, a device modeled after that described by Hargreaves (1988) was used. See Hargreaves K, Dubner R, Brown F, Flores C, Joris J. A new and sensitive method for measuring thermal nociception in cutaneous hyperalgesia, Pain, 32, 77-88 (1988). The device consisted of a glass surface on top of which the rats were placed. The glass surface was heated by a focused projection bulb below the glass surface. The first sign of discomfort is usually expressed as an attempt to sit up and lick the forepaws by the experimental animal. This response indicates a threshold of pain under the predetermined conditions. Dancing and jumping about by an undrugged animal is an indicator of unbearable pain; whereas drugged animals more commonly withdraw the hind paws and keep them close to their abdomen. A timer was actuated with the light source and latency defined as the time required for the paw to be withdrawn from the glass surface. See Dirig D M, Isakson P C, and Yaksh T L. J Pharmacol Exp Ther., 285, 1031-8 (1998).

Experiment [4] relates to formalin-induced flinching behavior. In words: formalin-induced flinching (paw formalin model). Conditions: intrathecal pre-treatment (-10 min). How it is done: An evaluation was conducted to determine presence or lack thereof for an afferent-mediated induction of phosphorylated (activated) spinal p38 MAPK. A formalin mediated hyperalgesia model was utilized to conduct the evaluation. (In the formalin model, a standard dose of formalin is injected into the rat paw, and flexions of the paw are quantitated over the following 90 minute period. A biphasic response pattern is typically observed, with numerous responses observed during the period five minutes after injection (Phase 1) and a second phase (Phase 2), which occurs during the period about 10-60 minutes following injection. The mean number of flinches per minute is recorded as a function of time. Quantitation of responses during each phase can be accomplished by calculation of area under the curve of flinches/minute.) The formalin induction model reflects several levels of processing of nociceptive information in the spinal cord. See, e.g., U.S. Pat. No. 6,166,085. […] This second phase is thought to represent a state of facilitated processing evoked by the afferent input present during phase I and to involve release of at least two substances, glutamate and a tachykinin, based on pharmacological evidence. Injection of formalin into the paw evokes an initial burst of afferent input followed by a persistent low level discharge. […]

In the case of `C[S+]([O-])c1ccc(-c2nc(-c3ccncc3)c(-c3ccc(F)cc3)[nH]2)cc1` (centres unmarked) [SB, SB203580], in experiment [1], the “thermal hyperalgesia induced by IT sP” value is reported as “blocked the thermal hyperalgesia induced by IT sP in a dose dependent fashion”. Moreover, the “hyperalgesia induced by IT NMDA” value in experiment [2] is “reversed in a dose dependent fashion”. Also, the carrageenan-induced thermal hyperalgesia result in experiment [3] (intrathecal pre-treatment (-10 min)) is “potent dose-dependent suppression”. The “response latency of the uninduced paw” value in experiment [3] (intrathecal, even after the highest doses) is “no changes”. The “second phase of flinching behavior induced by formalin” value in experiment [4] is listed as “potent dose-dependent attenuation”.
